IC50 data for 30 compounds are collected here from patent publication US10696692B2, “Amido-benzyl sulfone and sulfoxide derivates” (Forma TM, LLC, priority 2012, dated 2020).

Like-named read-outs stand apart in the source and are kept apart here.

The subject of one test is A2780 cells. The test is described as follows: Assay 2: In-Vitro Cell Proliferation Assay (A2780 cells, SRB readout, 72 hours).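 Further: viable cells counted via sulforhodamine B staining, absorbance at 570 nm, after 72 h exposure at 37 °C, DMSO 0.1% as control, media-only background subtracted.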 Type of test: cell-based. The following applies: A2780 cells, 72 hours, SRB, read-out: Cell Proliferation (IC50).
The target of the next test is NAMPT (Homo sapiens (Human), UniProt P43490). In words: Assay 1: Biochemical Inhibition Assay (NAMPT enzymatic reaction, NMN quantified by mass spectrometry).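 Further: recombinant His-tagged human NAMPT preincubated with compound 15 min, then reacted 30 min at rt with 1 µM NAM, 100 µM PRPP, 2.5 mM ATP, NMN product read by RapidFire MS, normalized to L-Cystathionine internal standard.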 The following applies: read-out: Biochemical (IC50).
Chain of NAMPT (P43490 whole entry): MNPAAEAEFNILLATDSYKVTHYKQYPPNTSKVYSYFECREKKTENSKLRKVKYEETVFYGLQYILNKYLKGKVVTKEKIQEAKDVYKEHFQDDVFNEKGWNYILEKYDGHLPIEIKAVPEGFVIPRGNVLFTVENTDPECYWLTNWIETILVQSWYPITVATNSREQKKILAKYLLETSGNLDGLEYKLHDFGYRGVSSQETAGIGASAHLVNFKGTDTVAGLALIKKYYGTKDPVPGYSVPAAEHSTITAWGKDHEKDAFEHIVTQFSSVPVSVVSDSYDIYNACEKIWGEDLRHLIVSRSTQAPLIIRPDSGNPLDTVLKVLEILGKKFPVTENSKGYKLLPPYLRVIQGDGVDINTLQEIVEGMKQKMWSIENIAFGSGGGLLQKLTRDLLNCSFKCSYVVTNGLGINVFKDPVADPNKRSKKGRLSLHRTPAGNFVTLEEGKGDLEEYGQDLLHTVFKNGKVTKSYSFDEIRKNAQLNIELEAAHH

`O=C(NCc1ccc(S(=O)(=O)N2CC3CCC(C2)O3)cc1)c1cc2ccncc2o1` [Example 305, N-[[4-(8-oxa-3-azabicyclo[3.2.1]octan-3-ylsulfonyl)phenyl]methyl]furo [2,3-c]pyridine-2-carboxamide]: the IC50 came to 17.8 nM with A2780 cells (Homo sapiens, A2780, 72 h) and 41.4 nM on NAMPT.
The corresponding values for `O=C(NCc1ccc(S(=O)(=O)N2CCCCC2)cc1)c1ccn2cncc2c1` [Example 308, N-[[4-(1-piperidylsulfonyl)phenyl]methyl]imidazo[1,5-a]pyridine-7-carboxamide] are 2000 nM and 1420 nM.
For `CCC(=O)N1CCC(S(=O)(=O)c2ccc(CNC(=O)c3cc4ccncc4o3)cc2)CC1` [Example 312, N-[[4-[(1-propanoyl-4-piperidyl)sulfonyl]phenyl]methyl]furo[2,3-c]pyridine-2-carboxamide] the same measures were 48.9 nM and 113 nM.
For `CC(C)C(=O)N1CCC(S(=O)(=O)c2ccc(CNC(=O)c3cc4ccncc4o3)cc2)CC1` [Example 313, N-[[4-[[1-(2-methylpropanoyl)-4-piperidyl]sulfonyl]phenyl]methyl]furo[2,3-c]pyridine-2-carboxamide] the same measures were 53.8 nM and 35 nM.
As for `CCCC(=O)N1CCC(S(=O)(=O)c2ccc(CNC(=O)c3cc4ccncc4o3)cc2)CC1` [Example 314, N-[[4-[(1-butanoyl-4-piperidyl)sulfonyl]phenyl]methyl]furo[2,3-c]pyridine-2-carboxamide], the IC50 with A2780 cells (Homo sapiens, A2780, 72 h) turned out to be 51.9 nM; at NAMPT, 20.3 nM.
Regarding `CC(C)N1CCC(S(=O)(=O)c2ccc(CNC(=O)c3ccc4nccn4c3)cc2)CC1` [Example 315, N-[[4-[(1-isopropyl-4-piperidyl)sulfonyl]phenyl]methyl]imidazo[1,2-a]pyridine-6-carboxamide], the IC50 amounted to 30.3 nM in the test with A2780 cells (Homo sapiens, A2780, 72 h) and 89 nM on NAMPT.
In the case of `NC1CCN(S(=O)(=O)c2ccc(CNC(=O)c3ccc4nccn4c3)cc2)CC1` [Example 317, N-[[4-[(4-amino-1-piperidyl)sulfonyl]phenyl]methyl]imidazo[1,2-a]pyridine-6-carboxamide], the IC50 in the test on A2780 cells (Homo sapiens, A2780, 72 h) came out at 87.7 nM; on NAMPT, 82.1 nM.
For `O=C(NCc1ccc(S(=O)(=O)N2CCOC3(CCNCC3)C2)cc1)c1ccc2nccn2c1` [Example 319, N-[[4-(1-oxa-4,9-diazaspiro[5.5]undecan-4-ylsulfonyl)phenyl]methyl] imidazo[1,2-a]pyridine-6-carboxamide] the same measures were 102 nM and 106 nM.
For `NC12CC1CN(S(=O)(=O)c1ccc(CNC(=O)c3ccc4nccn4c3)cc1)C2` (stereo not drawn) [Example 320, N-[[4-[(5-amino-3-azabicyclo[3.1.0]hexan-3-yl)sulfonyl]phenyl]methyl] imidazo[1,2-a]pyridine-6-carboxamide] the same measures were 61.9 nM and 68.7 nM.
As for `O=C(NCc1ccc(S(=O)(=O)N2CCC3(CCCN3)CC2)cc1)c1ccc2nccn2c1` [Example 321, N-[[4-(1,8-diazaspiro[4.5]decan-8-ylsulfonyl)phenyl]methyl] imidazo[1,2-a]pyridine-6-carboxamide], the IC50 turned out to be 54 nM in the test with A2780 cells (Homo sapiens, A2780, 72 h) and 65.1 nM at NAMPT.
`O=C(NCc1ccc(S(=O)(=O)N2CCOC3(CCCNC3)C2)cc1)c1ccc2nccn2c1` (stereo not drawn) [Example 322, N-[[4-(1-oxa-4,8-diazaspiro[5.5]undecan-4-ylsulfonyl)phenyl]methyl] imidazo[1,2-a]pyridine-6-carboxamide]: the IC50 with A2780 cells (Homo sapiens, A2780, 72 h) was 39 nM; at NAMPT it was 43.4 nM.
For `NC1CC2(CCN(S(=O)(=O)c3ccc(CNC(=O)c4ccc5nccn5c4)cc3)CC2)C1` [Example 323, N-[[4-[(2-amino-7-azaspiro[3.5]nonan-7-yl)sulfonyl]phenyl]methyl] imidazo[1,2-a]pyridine-6-carboxamide] the same measures were 13.3 nM and 17.7 nM.
For `O=C(NCc1ccc(S(=O)(=O)N2CCC3(CCNCC3)CC2)cc1)c1ccc2nccn2c1` [Example 324, N-[[4-(3,9-diazaspiro[5.5]undecan-3-ylsulfonyl)phenyl]methyl] imidazo[1,2-a]pyridine-6-carboxamide] the same measures were 24.8 nM and 19.2 nM.
For `O=C(NCc1ccc(S(=O)(=O)N2CCC3(CCCNC3)CC2)cc1)c1ccc2nccn2c1` [Example 325, N-[[4-(2,9-diazaspiro[5.5]undecan-9-ylsulfonyl)phenyl]methyl] imidazo[1,2-a]pyridine-6-carboxamide] the same measures were 27.5 nM and 25.6 nM.
On to `O=C(NCc1ccc(S(=O)(=O)N2CCCC3(CCCCN3)C2)cc1)c1ccc2nccn2c1` (stereo not drawn) [Example 326, N-[[4-(1,8-diazaspiro[5.5]undecan-8-ylsulfonyl)phenyl]methyl] imidazo[1,2-a]pyridine-6-carboxamide], for which the IC50 in the test with A2780 cells came to 60.1 nM; on NAMPT it was 107 nM.
For `O=C(NCc1ccc(S(=O)(=O)N2CCOC3CNCC32)cc1)c1ccc2nccn2c1` (stereo not drawn) [Example 327, N-[[4-(3,4a,5,6,7,7a-hexahydro-2H-pyrrolo[3,4-b][1,4]oxazin-4-ylsulfonyl)phenyl]methyl] imidazo[1,2-a]pyridine-6-carboxamide], the IC50 with A2780 cells (Homo sapiens, A2780, 72 h) was found to be 2000 nM; on NAMPT it was 1300 nM.
For `NCC12CC(CN1S(=O)(=O)c1ccc(CNC(=O)c3ccc4nccn4c3)cc1)C2` [Example 328, N-[[4-[[4-(aminomethyl)-3-azabicyclo[2.1.1]hexan-3-yl]sulfonyl]phenyl]methyl) imidazo[1,2-a]pyridine-6-carboxamide] the same measures were 2000 nM and 1680 nM.
For `O=C(NCc1ccc(S(=O)(=O)N2CC3CNCC3C2)cc1)c1ccc2nccn2c1` (stereo not drawn) [Example 329, N-[[4-(2,3,3a,4,6,6a-hexahydro-1H-pyrrolo[3,4-c]pyrrol-5-yIsulfonyl)phenyl]methyl] imidazo[1,2-a]pyridine-6-carboxamide] the same measures were 93.3 nM and 79.3 nM.
As for `O=C(NCc1ccc(S(=O)(=O)N2CC(C3CCCNC3)c3ccccc32)cc1)c1ccc2nccn2c1` (stereo not drawn) [Example 330, N-[[4-[3-(3-piperidyl)indolin-1-yl]sulfonylphenyl]methyl] imidazo[1,2-a]pyridine-6-carboxamide], the IC50 with A2780 cells (Homo sapiens, A2780, 72 h) came to 42.8 nM; on NAMPT, 22.2 nM.
For the compound `O=C(NCc1ccc(S(=O)(=O)N2CCCC23CCNCC3)cc1)c1ccc2nccn2c1` [Example 331, N-[[4-(1,8-diazaspiro[4.5]decan-1-ylsulfonyl)phenyl]methyl] imidazo[1,2-a]pyridine-6-carboxamide], the IC50 came to 774 nM in the test on A2780 cells (Homo sapiens, A2780, 72 h) and 355 nM on NAMPT.
For `O=C(NCc1ccc(S(=O)(=O)N2CC3CCNC3C2)cc1)c1ccc2nccn2c1` (stereo not drawn) [Example 332, N-[[4-(2,3,3a,4,6,6a-hexahydro-1H-pyrrolo[3,4-b]pyrrol-5-ylsulfonyl)phenyl]methyl] imidazo[1,2-a]pyridine-6-carboxamide] the same measures were 171 nM and 174 nM.
On to `O=C(NCc1ccc(S(=O)(=O)N2CC3CNCC(C2)O3)cc1)c1ccc2nccn2c1` [Example 333, N-[[4-(9-oxa-3,7-diazabicyclo[3.3.1]nonan-3-ylsulfonyl)phenyl]methyl] imidazo[1,2-a]pyridine-6-carboxamide], for which the IC50 in the test on A2780 cells (Homo sapiens, A2780, 72 h) worked out at 286 nM; on NAMPT, 320 nM.
The corresponding values for `O=C(NCc1ccc(S(=O)(=O)N2CCCC3(CCCN3)CC2)cc1)c1ccc2nccn2c1` (stereo not drawn) [Example 334, N-[[4-(1,9-diazaspiro[4.6]undecan-9-ylsulfonyl)phenyl]methyl] imidazo[1,2-a]pyridine-6-carboxamide] are 26 nM and 26.7 nM.
`O=C(NCc1ccc(S(=O)(=O)N2CCOC3CNCC32)cc1)c1ccc2nccn2c1` (stereo not drawn) [Example 335, N-[[4-(3,4a,5,6,7,7a-hexahydro-2H-pyrrolo[3,4-b][1,4]oxazin-4-ylsulfonyl)phenyl)methyl] imidazo[1,2-a]pyridine-6-carboxamide]: the IC50 with A2780 cells is 2000 nM; at NAMPT, 965 nM.
For `O=C(NCc1ccc(S(=O)(=O)N2CCCC3(CCCCN3)C2)cc1)c1ccc2nccn2c1` (stereo not drawn) [Example 336, N-[[4-(1,8-diazaspiro[5.5]undecan-8-ylsulfonyl)phenyl]methyl] imidazo[1,2-a]pyridine-6-carboxamide] the same measures were 399 nM and 379 nM.
On to `CC(C)N1CCC(S(=O)(=O)c2ccc(CNC(=O)c3cc4cnccc4[nH]3)cc2)CC1` [Example 340, N-[[4-[(1-isopropyl-4-piperidyl)sulfonyl]phenyl]methyl]-1H-pyrrolo[3,2-c]pyridine-2-carboxamide], for which the IC50 in the test with A2780 cells (Homo sapiens, A2780, 72 h) worked out at 26.6 nM; at NAMPT, 88.5 nM.
As for `CCCN1CCC(S(=O)(=O)c2ccc(CNC(=O)c3cc4ccncc4o3)cc2)CC1` [Example 342, N-[[4-[(1-propyl-4-piperidyl)sulfonyl]phenyl]methyl]furo[2,3-c]pyridine-2-carboxamide], the IC50 in the test with A2780 cells (Homo sapiens, A2780, 72 h) was 23 nM; at NAMPT, 20.3 nM.
For the compound `O=C(NCc1ccc(S(=O)(=O)C2CCN(C(=O)c3ccccc3)CC2)cc1)c1cnc2[nH]ncc2c1` [Example 344, N-[[4-[(1-benzoyl-4-piperidyl)sulfonyl]phenyl]methyl]-1H-pyrazolo[3,4-b]pyridine-5-carboxamide], the IC50 in the test with A2780 cells (Homo sapiens, A2780, 72 h) came to 451 nM; at NAMPT, 302 nM.
Turning to `O=C(NCc1ccc(S(=O)(=O)C2CCCN(S(=O)(=O)c3ccccc3)C2)cc1)c1cnc2[nH]ncc2c1` (stereo not drawn) [Example 345, N-[[4-[[1-(benzenesulfonyl)-3-piperidyl]sulfonyl]phenyl]methyl]-1H-pyrazolo[3,4-b]pyridine-5-carboxamide], the IC50 was 307 nM in the test on A2780 cells (Homo sapiens, A2780, 72 h) and 118 nM on NAMPT.
For `O=C(NCc1ccc(S(=O)(=O)C2CCN(S(=O)(=O)c3ccccc3)C2)cc1)c1cnc2[nH]ncc2c1` (stereo not drawn) [Example 346, N-[[4-[1-(benzenesulfonyl)pyrrolidin-3-yl]sulfonylphenyl]methyl]-1H-pyrazolo[3,4-b]pyridine-5-carboxamide] the same measures were 198 nM and 102 nM.
